Data on 20 molecules can be found in ChEMBL document CHEMBL4396962, “Discovery of novel steroidal histamine H3 receptor antagonists/inverse agonists. Part 2. Versatile steroidal carboxamide derivatives” (Bioorg Med Chem Lett, 2019).

A word on the IC50: it is the point on the concentration scale where inhibition reaches its midpoint. The low end stands for higher potency, the high end for lower potency. Broadly, the Ki is the dissociation constant of the complex between target and ligand, obtained from inhibition or displacement. In general, ED50 refers to the dose at which the effect has come halfway, by size or by number of responders. As usually defined, the inhibition is the percentage by which the read-out fell short of the control. A higher inhibition goes with a strong effect. Broadly, the solubility is the dissolved amount per volume that the medium holds. The term Kp denotes the ratio of the level in a tissue or fluid to that in plasma or blood. One may read the logD as lipophilicity at a set pH, counting ionised and neutral species. As usually defined, the logP is a log measure of how a compound divides between an organic and an aqueous phase. What is called Tmax is the time at which the peak concentration occurs.

Data set [1] concerns the target Muscarinic acetylcholine receptor (Rattus norvegicus) (UniProt P08482+P08483+P08485+P08911+P10980). Kind of data set: Displacement of [3H]quinuclidinyl benzilate from Wistar rat cortex muscarinic acetylcholine receptor at 3 uM by liquid scintillation counter method relative to control. Background: In a radioligand displacement assay an active substance lowers the binding of a labelled ligand.

Data set [2] deals with Voltage-gated inwardly rectifying potassium channel KCNH2 (Homo sapiens, UniProt Q12809). Kind of data set: Inhibition of human ERG.
Voltage-gated inwardly rectifying potassium channel KCNH2, sequence (Q12809 whole entry): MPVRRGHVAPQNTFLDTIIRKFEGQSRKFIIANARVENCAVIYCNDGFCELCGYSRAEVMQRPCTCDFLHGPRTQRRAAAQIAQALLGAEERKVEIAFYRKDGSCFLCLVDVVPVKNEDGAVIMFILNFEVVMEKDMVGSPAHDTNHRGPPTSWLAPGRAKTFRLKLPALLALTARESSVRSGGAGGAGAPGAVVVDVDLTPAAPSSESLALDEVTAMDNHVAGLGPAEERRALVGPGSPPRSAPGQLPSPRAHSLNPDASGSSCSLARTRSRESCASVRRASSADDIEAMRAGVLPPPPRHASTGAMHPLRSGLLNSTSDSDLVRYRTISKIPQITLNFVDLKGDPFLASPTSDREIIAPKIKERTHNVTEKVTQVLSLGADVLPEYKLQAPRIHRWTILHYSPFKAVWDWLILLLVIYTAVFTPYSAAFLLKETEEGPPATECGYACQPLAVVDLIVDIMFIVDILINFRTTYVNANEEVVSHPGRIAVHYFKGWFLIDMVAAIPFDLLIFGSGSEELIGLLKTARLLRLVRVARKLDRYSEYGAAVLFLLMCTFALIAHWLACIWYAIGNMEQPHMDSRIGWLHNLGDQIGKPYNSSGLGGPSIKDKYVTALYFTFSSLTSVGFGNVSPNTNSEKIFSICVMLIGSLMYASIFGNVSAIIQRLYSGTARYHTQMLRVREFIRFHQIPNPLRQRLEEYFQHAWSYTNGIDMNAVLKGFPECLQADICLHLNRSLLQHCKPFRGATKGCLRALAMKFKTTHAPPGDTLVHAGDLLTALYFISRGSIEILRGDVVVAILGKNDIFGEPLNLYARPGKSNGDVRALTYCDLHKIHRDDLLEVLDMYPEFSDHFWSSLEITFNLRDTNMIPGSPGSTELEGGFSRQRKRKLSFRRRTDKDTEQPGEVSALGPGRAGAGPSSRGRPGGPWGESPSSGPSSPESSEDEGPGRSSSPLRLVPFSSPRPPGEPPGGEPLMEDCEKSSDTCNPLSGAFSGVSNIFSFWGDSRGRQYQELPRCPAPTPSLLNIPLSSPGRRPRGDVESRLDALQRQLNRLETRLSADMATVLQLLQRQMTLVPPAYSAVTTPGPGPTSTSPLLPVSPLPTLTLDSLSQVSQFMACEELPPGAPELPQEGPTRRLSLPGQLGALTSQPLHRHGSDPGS
Data set [3] addresses Histamine H3 receptor (Homo sapiens, UniProt Q9Y5N1). Briefly: Displacement of [3H]methyl- N-alpha methylhistamine dihydrochloride from human recombinant H3 receptor expressed in CHOK1 cells measured after 30 mins by liquid scintillation counter method. The class given is cell-based.
The target in data set [4] is Histamine H3 receptor (Rattus norvegicus, UniProt Q9QYN8). Kind of data set: Displacement of [3H]methyl- N-alpha methylhistamine dihydrochloride from Sprague-Dawley rat cerebral cortex H3 receptor measured after 30 mins by scintillation counter method.
Histamine H3 receptor (Rattus norvegicus, UniProt Q9QYN8), sequence (Q9QYN8 whole entry): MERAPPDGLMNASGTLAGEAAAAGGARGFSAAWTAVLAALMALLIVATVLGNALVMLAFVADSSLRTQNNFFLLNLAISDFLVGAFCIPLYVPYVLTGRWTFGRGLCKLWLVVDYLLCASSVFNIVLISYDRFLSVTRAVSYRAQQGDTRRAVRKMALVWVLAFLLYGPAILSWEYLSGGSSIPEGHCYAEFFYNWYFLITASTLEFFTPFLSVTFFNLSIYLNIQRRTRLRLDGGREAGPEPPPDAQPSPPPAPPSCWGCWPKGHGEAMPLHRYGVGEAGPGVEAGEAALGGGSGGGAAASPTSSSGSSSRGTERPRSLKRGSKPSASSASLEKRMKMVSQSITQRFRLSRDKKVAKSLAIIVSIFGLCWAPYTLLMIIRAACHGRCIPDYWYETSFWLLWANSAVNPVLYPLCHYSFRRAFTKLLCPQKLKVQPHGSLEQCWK
The subject of data set [5] is Rattus norvegicus. Briefly: In vivo antagonist activity at H3 receptor in po dosed Wistar rat assessed as inhibition of imetit induced dipsogenia preincubated for 30 mins followed by imetit administration at 3 mg/kg,sc. The class given is functional.
A short description of data set [6]: Fraction of drug metabolized in rat microsomes. The settings on record: read-out: Fm. The class given is ADME, Microsome.
The nature of data set [7]: Fraction of drug metabolized in human microsomes. The following applies: read-out: Fm. The data set is classed as ADME, Microsome.
Data set [8] deals with Histamine H3 receptor (Rattus norvegicus) (UniProt Q9QYN8). Briefly: Displacement of [3H]methyl- N-alpha methylhistamine dihydrochloride from Sprague-Dawley rat cerebral cortex H3 receptor measured after 30 mins by scintillation counter method relative to control.
Histamine H3 receptor (Rattus norvegicus), sequence (Q9QYN8 whole entry): as above
Data set [9] concerns the target Muscarinic acetylcholine receptor. Kind of data set: Displacement of [3H]quinuclidinyl benzilate from Wistar rat cortex muscarinic acetylcholine receptor by liquid scintillation counter method.
The nature of data set [10]: Solubility of compound in DMSO. The class given is physicochemical.
A short description of data set [11]: Ratio of AUC (0 to infinity) in Wistar rat brain to plasma at 10 mg/kg, po measured after 5 hrs by HPLC-MS/MS analysis. The data set is classed as ADME, organism-based.
Data set [12] can be described thus: Partition coefficient, logD of compound at pH 7.4. The data set is classed as physicochemical. The following applies: octanol/water.
The nature of data set [13]: Kinetic solubility of compound. The class given is physicochemical. The settings on record: read-out: Kinetic_solubility.
The nature of data set [14]: Lipophilicity, logP of compound. The data set is classed as physicochemical. The settings on record: octanol/water.
Data set [15] concerns Rattus norvegicus. Kind of data set: Cognitive enhancement in scopolamine-induced amnesia Wistar rat model assessed as increase in memory retrieval at 3 mg/kg, po with scopolamine treatment for 23 hrs followed by compound administration measured after 1 hr by water labyrinth relative to control. The data set is classed as functional.
Data set [16] can be described thus: Tmax in Wistar rat brain at 10 mg/kg, po measured after 5 hrs by HPLC-MS/MS analysis. The data set is classed as ADME, organism-based.
For data set [17], the species on record is Rattus norvegicus. Briefly: Selectivity index, ratio of Ki for Wistar rat cortex muscarinic acetylcholine receptor to Ki for Sprague-Dawley rat cerebral cortex H3 receptor.
Data set [18] deals with Rattus norvegicus. Kind of data set: In vivo antagonist activity at H3 receptor in ip dosed Wistar rat assessed as inhibition of imetit induced dipsogenia preincubated for 30 mins followed by imetit administration at 3 mg/kg,sc. The data set is classed as functional.
For data set [19], the system named is Rattus norvegicus. Briefly: In vivo antagonist activity at Wistar rat H3 receptor assessed as inhibition of imetit-induced dipsogenia at 30 mg/kg, po for 30 mins followed by imetit administration at 3 mg/kg, sc, relative to control. The class given is functional.

Values after ≈ are worked out from the molar mass of the structure shown.

Histamine H3 receptor (Homo sapiens, UniProt Q9Y5N1), sequence (Q9Y5N1 whole entry): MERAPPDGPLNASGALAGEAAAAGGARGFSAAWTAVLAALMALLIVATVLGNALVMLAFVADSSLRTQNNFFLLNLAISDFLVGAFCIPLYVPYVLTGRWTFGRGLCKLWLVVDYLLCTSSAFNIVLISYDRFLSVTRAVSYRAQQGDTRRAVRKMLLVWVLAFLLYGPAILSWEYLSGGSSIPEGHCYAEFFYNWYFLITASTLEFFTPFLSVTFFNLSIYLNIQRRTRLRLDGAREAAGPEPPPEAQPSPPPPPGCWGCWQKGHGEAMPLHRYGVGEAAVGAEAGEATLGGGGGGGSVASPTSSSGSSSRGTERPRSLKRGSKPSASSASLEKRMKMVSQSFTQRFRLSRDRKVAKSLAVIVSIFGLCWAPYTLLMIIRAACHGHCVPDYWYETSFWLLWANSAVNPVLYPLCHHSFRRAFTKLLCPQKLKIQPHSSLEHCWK

`CCNC(=O)[C@H]1CC[C@@]2(C)CC[C@@H]3c4ccc(OCCCN5CCC[C@H]5C)cc4CC[C@H]3[C@H]12`: the Activity in [1] came to 24%. Further, the IC50 in data set [2] was 4.1 µM. In addition, the Ki on Histamine H3 receptor [3] was determined as 0.009 µM; at Histamine H3 receptor [4], 0.024 µM. The 50% effective dose (ED50) in the data set with Rattus norvegicus [5] lay within 2.26 to 2.3 mg/kg. Besides, the metabolised was found to be 66% in data set [6] and 62% in [7].
`CCN(CC)C(=O)[C@@H]1CC(=O)[C@@]2(C)CC[C@@H]3c4ccc(OCCCN5CCC[C@@H]5C)cc4CC[C@H]3[C@H]12`: the Ki at Histamine H3 receptor [3] was 0.034 µM. This molecule also gave an inhibition in [8] of 44%.
Take `C[C@]12CC[C@@H]3c4ccc(OCCCN5CCCC5=O)cc4CC[C@H]3[C@@H]1CC[C@@H]2N1CCCC1`: the Ki at Histamine H3 receptor [3] came out at 0.009 µM; at Histamine H3 receptor [4], 0.022 µM; in data set [9] it was 0.7 µM. For the same molecule, the metabolised in data set [6] was 85%; in [7] it was 77%.
For the molecule `CCNC(=O)[C@H]1CC(=O)[C@@]2(C)CC[C@@H]3c4ccc(OCCCN5CCC(F)(F)CC5)cc4CC[C@H]3[C@H]12`, the inhibition constant Ki at Histamine H3 receptor [3] was found to be 1.37 µM.
Regarding `CCNC(=O)[C@H]1CC(=O)[C@@]2(C)CC[C@@H]3c4ccc(OCCCN5CCC(F)CC5)cc4CC[C@H]3[C@H]12`, the Ki at Histamine H3 receptor [3] came to 0.53 µM.
Turning to `C[C@@H]1CCCN1CCCOc1ccc2c(c1)CC[C@H]1[C@@H]3[C@@H](C(=O)NCC4CC4)CC[C@@]3(C)CC[C@H]21`, the Activity in data set [1] worked out at 27%. For the same molecule, in [2], the IC50 turned out to be 4.1 µM. The values for the Ki at Histamine H3 receptor [3] and on Histamine H3 receptor [4] were 0.009 µM and 0.013 µM, respectively. In addition, the metabolised in data set [6] was found to be 76%; in data set [7], 90%.
`CCNC(=O)[C@H]1CC(=O)[C@@]2(C)CC[C@@H]3c4ccc(OCCCN5CCC[C@H]5C)cc4CC[C@H]3[C@H]12` gave a solubility in [10] above 50000 µM. Besides, in [2], half-maximal inhibition (IC50) was put at 17.5 µM. For the same molecule, the Ki on Histamine H3 receptor [3] was found to be 0.003 µM; on Histamine H3 receptor [4], 0.009 µM; in [9], 4.7 µM. In addition, the ED50 with Rattus norvegicus [5] is 0.47 mg/kg. For the same molecule, the metabolised in data set [6] and in [7] was 99% in each case. For the same molecule, the Kp at 5 h in [11] is 0.24. Further, the logD in data set [12] worked out at 1.7. Also, the solubility kinetic in [13] was found to be 250 µM (≈ 117 µg/mL). The logP in data set [14] is 4.2. The Activity with Rattus norvegicus [15] was 52.3%. For the same molecule, in data set [16], the Tmax was 1 h.
In data set [1], `CCNC(=O)[C@@H]1CC(=O)[C@@]2(C)CC[C@@H]3c4ccc(OCCN5CCC[C@@H]5C)cc4CC[C@H]3[C@H]12` displayed an Activity of 4%. The Ki at Histamine H3 receptor [3] worked out at 0.26 µM.
Consider `C[C@@H]1CCCN1CCCOc1ccc2c(c1)CC[C@H]1[C@@H]3[C@@H](C(=O)NCC4CCC4)CC[C@@]3(C)CC[C@H]21`, for which the inhibitory constant (Ki) is 0.005 µM at Histamine H3 receptor [3], 0.019 µM at Histamine H3 receptor [4] and 1.708 µM in data set [9]. Further, the metabolised in data set [6] turned out to be 50%; in [7], 48%.
Take `C[C@@H]1CCCN1CCCOc1ccc2c(c1)CC[C@@H]1[C@@H]2CC[C@]2(C)[C@@H](C(=O)N3CCCC3)CC[C@@H]12`: the Ki is 0.002 µM on Histamine H3 receptor [3], 0.018 µM on Histamine H3 receptor [4] and 0.454 µM in data set [9]. Further, the Ratio Ki in the data set listed under Rattus norvegicus [17] is 25.
For the molecule `CCNC(=O)[C@H]1CC(=O)[C@@]2(C)CC[C@@H]3c4ccc(OCCCN5CC[C@@H](F)C5)cc4CC[C@H]3[C@H]12`, the inhibition constant (Ki) on Histamine H3 receptor [3] is 0.23 µM.
Molecule “N-ethyl-2-((8R,9S,13S,14S,15R,17S)-17-methoxy-13-methyl-3-(3-((R)-2-methylpyrrolidin-1-yl)propoxy)-7,8,9,11,12,13,14,15,16,17-decahydro-6H-cyclopenta[a]phenanthren-15-yl)acetamide” yielded an Activity in data set [1] of 6%.
`C[C@]12CC[C@@H]3c4ccc(OCCCN5CCCC5)cc4CC[C@H]3[C@@H]1CC[C@@H]2N1CCCC1`: the IC50 in data set [2] worked out at 7.5 µM. Also, in [9], the Ki is 0.11 µM. Further, the 50% effective dose (ED50) in the data set with Rattus norvegicus [18] was 12 mg/kg. In addition, the “inhibition (INH)” value in the data set on Rattus norvegicus [19] was found to be 19%.
In turn, `C[C@H]1CCCN1CCCOc1ccc2c(c1)CC[C@H]1[C@@H]3[C@H](C(=O)N4CCCC4)CC(=O)[C@@]3(C)CC[C@H]21` had an Activity in data set [1] of 16%. In data set [2], inhibition was half-maximal at 80 µM (IC50). In addition, the values for the inhibition constant Ki at Histamine H3 receptor [3] and at Histamine H3 receptor [4] were 0.03 µM and 0.009 µM, respectively. The ED50 in the data set with Rattus norvegicus [5] worked out at 0.6 mg/kg. In addition, the metabolised in data set [6] was 85%; in data set [7], 75%.
Take `CCNC(=O)[C@@H]1CC(=O)[C@@]2(C)CC[C@@H]3c4ccc(OCCCN5CCC[C@H]5C)cc4CC[C@H]3[C@H]12`: on Histamine H3 receptor [3], the Ki is 0.043 µM.
As to `CC(=O)N[C@@H]1CC(=O)[C@@]2(C)CC[C@@H]3c4ccc(OCCCN5CCC[C@H]5C)cc4CC[C@H]3[C@H]12`, the Activity in [1] is 20%. Further, the Ki was determined as 0.01 µM on Histamine H3 receptor [3] and 0.039 µM at Histamine H3 receptor [4]. The metabolised in data set [6] was 46%; in [7], 85%.
`C[C@@H]1CCCN1CCCOc1ccc2c(c1)CC[C@@H]1[C@@H]2CC[C@]2(C)[C@@H](N3CCCC3=O)CC[C@@H]12` showed an Activity in [1] of 51%. The same molecule registered a Ki at Histamine H3 receptor [4] of 0.135 µM.
On to `CCNC(=O)[C@H]1CC(=O)[C@@]2(C)CC[C@@H]3c4ccc(OCCCN5CCC[C@@H]5C)cc4CC[C@H]3[C@H]12`, for which the Ki at Histamine H3 receptor [3] turned out to be 0.021 µM.
`CCNC(=O)[C@@H]1CC(=O)[C@@]2(C)CC[C@@H]3c4ccc(OCCCCN5CCC[C@@H]5C)cc4CC[C@H]3[C@H]12` gave an Activity in data set [1] of 17%. Besides, the Ki at Histamine H3 receptor [3] was found to be 0.234 µM.
In data set [1], `CCNC(=O)[C@H]1C[C@H](OC)[C@@]2(C)CC[C@@H]3c4ccc(OCCCN5CCC[C@H]5C)cc4CC[C@H]3[C@H]12` displayed an Activity of 7%. The IC50 in data set [2] amounted to 11.4 µM. Further, the Ki at Histamine H3 receptor [3] came out at 0.009 µM; at Histamine H3 receptor [4], 0.028 µM. The ED50 in the data set on Rattus norvegicus [5] came out at 2.5 mg/kg. The metabolised in data set [6] and in data set [7] was 96% each time.
